Measured values reported in ChEMBL document CHEMBL5247660, “The lipidation and glycosylation enabling bioactivity enhancement and structural change of antibacterial peptide G3” (Bioorg Med Chem Lett, 2023).
Values after ≈ are worked out from the molar mass of the structure shown. Active and inactive are the calls of the source. The rule behind the calls is not given here. Residues, ends and D or L forms follow the SMILES beside them. *: point of attachment. βGlc = OC[C@H]1O[C@@H](*)[C@H](O)[C@@H](O)[C@@H]1O; βGal = OC[C@H]1O[C@@H](*)[C@H](O)[C@@H](O)[C@H]1O; Palmitoyl = CCCCCCCCCCCCCCCC(=O)*; Lauroyl = CCCCCCCCCCCC(=O)*; Octanoyl = CCCCCCCC(=O)*

Key:
Staphylococcus aureus [1] = assay: Antibacterial activity against Staphylococcus aureus assessed as bacterial growth inhibition; format: functional
Cell membrane = assay: Induction of outer membrane permeabilization in Pseudomonas aeruginosa PAO1 assessed as increase in NPN uptake at 8 to 32 uM by NPN-dye based fluorescence analysis; conditions: dose 8-32 µM
Pseudomonas aeruginosa [2] = assay: Antibiofilm activity against Pseudomonas aeruginosa PAO1 assessed as removal of mature biofilm at 32 uM incubated for 4 hrs at relative to control; format: functional
Escherichia coli = assay: Antibacterial activity against Escherichia coli assessed as bacterial growth inhibition; format: functional
Pseudomonas aeruginosa [3] = assay: Antibacterial activity against Pseudomonas aeruginosa assessed as bacterial growth inhibition; format: functional
Staphylococcus aureus [4] = assay: Antibacterial activity against methicillin-resistant Staphylococcus aureus assessed as bacterial growth inhibition; format: functional
Pseudomonas aeruginosa [5] = assay: Antibiofilm activity against Pseudomonas aeruginosa PAO1 assessed as inhibition of biofilm formation at 8 to 32 uM incubated for 24 hrs by microplate reader analysis relative to control; format: functional; conditions: dose 8-32 µM, read-out: MIC
Pseudomonas aeruginosa [6] = assay: Antibiofilm activity against Pseudomonas aeruginosa PAO1; format: functional, organism-based
[7] = Hemolytic activity in sheep RBC assessed as hemolysis; format: toxicity, cell-based, Ovis aries; conditions: erythrocyte
[8] = biological target: T1, PA-I galactophilic lectin (Pseudomonas aeruginosa (strain ATCC 15692 / PAO1 / 1C / PRS 101 / LMG12228), UniProt Q05097); assay: Binding affinity to Pseudomonas aeruginosa LecA assessed as dissociation constant
T1 sequence (Q05097 whole entry): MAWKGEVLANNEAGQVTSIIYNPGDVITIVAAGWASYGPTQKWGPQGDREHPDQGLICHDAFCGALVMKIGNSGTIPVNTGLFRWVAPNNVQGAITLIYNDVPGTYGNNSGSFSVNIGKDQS

Pseudomonas aeruginosa [9] = assay: Antibiofilm activity against Pseudomonas aeruginosa PAO1 assessed as inhibition of biofilm formation ratio at MIC concentration incubated for 24 hrs by microplate reader analysis relative to control; format: functional; design: scale not given: the % may be the effect or the level left
Pseudomonas aeruginosa [10] = assay: Antibiofilm activity against Pseudomonas aeruginosa PAO1 assessed as inhibition of biofilm formation ratio at 2 times of MIC concentration incubated for 24 hrs by microplate reader analysis relative to control; format: functional; design: scale not given: the % may be the effect or the level left
[11] = biological target: T2, PA-I galactophilic lectin (Pseudomonas aeruginosa (strain ATCC 15692 / PAO1 / 1C / PRS 101 / LMG12228)) (UniProt Q05097); assay: Binding affinity to Pseudomonas aeruginosa LecA assessed as change in enthalpy
T2 sequence (whole entry): T1 sequence (Q05097 whole entry)

[12] = biological target: T2, PA-I galactophilic lectin (Pseudomonas aeruginosa (strain ATCC 15692 / PAO1 / 1C / PRS 101 / LMG12228)); assay: Binding affinity to Pseudomonas aeruginosa LecA assessed as change in entropy
[13] = Hemolytic activity in sheep RBC assessed as hemolysis at 128 uM; format: toxicity, cell-based, Ovis aries; conditions: erythrocyte
Pseudomonas aeruginosa [14] = assay: Antibiofilm activity against Pseudomonas aeruginosa PAO1 assessed as increase in biofilm inhibition ratio at MIC concentration incubated for 24 hrs by microplate reader analysis relative to control; format: functional; design: scale not given: the % may be the effect or the level left
Pseudomonas aeruginosa [15] = assay: Antibiofilm activity against Pseudomonas aeruginosa PAO1 assessed as increase in biofilm inhibition ratio at half MIC concentration incubated for 24 hrs by microplate reader analysis relative to control; format: functional; design: scale not given: the % may be the effect or the level left
Pseudomonas aeruginosa [16] = assay: Antibiofilm activity against Pseudomonas aeruginosa PAO1 assessed as increase in biofilm inhibition ratio at 2 times of MIC concentration incubated for 24 hrs by microplate reader analysis relative to control; format: functional; design: scale not given: the % may be the effect or the level left
Pseudomonas aeruginosa [17] = assay: Antibiofilm activity against Pseudomonas aeruginosa PAO1 assessed as inhibition of biofilm formation at 32 uM incubated for 24 hrs by microplate reader analysis relative to control; format: functional

## CC[C@H](C)[C@H](NC(=O)CN)C(=O)N[C@H](C(=O)N[C@@H](CCCCN)C(=O)N[C@@H](CCCCN)C(=O)N[C@H](C(=O)N[C@H](C(=O)N[C@@H](CCCCN)C(=O)N[C@@H](CCCCN)C(=O)N[C@H](C(=O)N[C@H](C(=O)N[C@@H](CCCCN)C(=O)N[C@@H](CCCCN)C(=O)N[C@H](C(=O)N[C@@H](CO[C@@H]1O[C@H](CO)[C@@H](O)[C@H](O)[C@H]1O)C(N)=O)[C@@H](C)CC)[C@@H](C)CC)[C@@H](C)CC)[C@@H](C)CC)[C@@H](C)CC)[C@@H](C)CC (H-GIIKKIIKKIIKKIS(βGlc)-NH2)
Staphylococcus aureus [1]
  MIC: 16 µM (≈ 30.2 µg/mL)
Cell membrane
  Activity: Active
Pseudomonas aeruginosa [2]
  Activity: 71%
Escherichia coli
  MIC: 32 µM (≈ 60.3 µg/mL)
Pseudomonas aeruginosa [3]
  MIC: 16 µM (≈ 30.2 µg/mL)
Staphylococcus aureus [4]
  MIC: 32 µM (≈ 60.3 µg/mL)
Pseudomonas aeruginosa [5]
  Minimum biofilm inhibitory concentration: 16 µM
Pseudomonas aeruginosa [6]
  Activity: Active

## CCCCCCCC(=O)NCC(=O)N[C@H](C(=O)N[C@H](C(=O)N[C@@H](CCCCN)C(=O)N[C@@H](CCCCN)C(=O)N[C@H](C(=O)N[C@H](C(=O)N[C@@H](CCCCN)C(=O)N[C@@H](CCCCN)C(=O)N[C@H](C(=O)N[C@H](C(=O)N[C@@H](CCCCN)C(=O)N[C@@H](CCCCN)C(=O)N[C@H](C(=O)N[C@@H](CO[C@@H]1O[C@H](CO)[C@H](O)[C@H](O)[C@H]1O)C(N)=O)[C@@H](C)CC)[C@@H](C)CC)[C@@H](C)CC)[C@@H](C)CC)[C@@H](C)CC)[C@@H](C)CC)[C@@H](C)CC (Octanoyl-GIIKKIIKKIIKKIS(βGal)-NH2)
[7]
  Activity: Dose-Dependent Effect
[8]
  Kd: 14.1 µM
Staphylococcus aureus [1]
  MIC: 4 µM (≈ 8.04 µg/mL)
Cell membrane
  Activity: Active
Escherichia coli
  MIC: 4 µM (≈ 8.04 µg/mL)
Pseudomonas aeruginosa [3]
  MIC: 16 µM (≈ 32.2 µg/mL)
Staphylococcus aureus [4]
  MIC: 4 µM (≈ 8.04 µg/mL)
Pseudomonas aeruginosa [9]
  Activity: 71%
Pseudomonas aeruginosa [10]
  Activity: 71%
[11]
  deltaH: -4.53 kcal/mol
Pseudomonas aeruginosa [5]
  Minimum biofilm inhibitory concentration: 16 µM
Pseudomonas aeruginosa [6]
  Activity: Active
[12]
  deltaS: 29.4 J/mol/K

## CCCCCCCCCCCCCCCC(=O)NCC(=O)N[C@H](C(=O)N[C@H](C(=O)N[C@@H](CCCCN)C(=O)N[C@@H](CCCCN)C(=O)N[C@H](C(=O)N[C@H](C(=O)N[C@@H](CCCCN)C(=O)N[C@@H](CCCCN)C(=O)N[C@H](C(=O)N[C@H](C(=O)N[C@@H](CCCCN)C(=O)N[C@@H](CCCCN)C(=O)N[C@H](C(N)=O)[C@@H](C)CC)[C@@H](C)CC)[C@@H](C)CC)[C@@H](C)CC)[C@@H](C)CC)[C@@H](C)CC)[C@@H](C)CC (Palmitoyl-GIIKKIIKKIIKKI-NH2)
Staphylococcus aureus [1]
  MIC: 16 µM (≈ 30 µg/mL)
Cell membrane
  Activity: Active
Escherichia coli
  MIC: 32 µM (≈ 60 µg/mL)
Pseudomonas aeruginosa [3]
  MIC: 32 µM (≈ 60 µg/mL)
Staphylococcus aureus [4]
  MIC: 32 µM (≈ 60 µg/mL)
Pseudomonas aeruginosa [5]
  Minimum biofilm inhibitory concentration: 16 µM

## CCCCCCCC(=O)NCC(=O)N[C@H](C(=O)N[C@H](C(=O)N[C@@H](CCCCN)C(=O)N[C@@H](CCCCN)C(=O)N[C@H](C(=O)N[C@H](C(=O)N[C@@H](CCCCN)C(=O)N[C@@H](CCCCN)C(=O)N[C@H](C(=O)N[C@H](C(=O)N[C@@H](CCCCN)C(=O)N[C@@H](CCCCN)C(=O)N[C@H](C(N)=O)[C@@H](C)CC)[C@@H](C)CC)[C@@H](C)CC)[C@@H](C)CC)[C@@H](C)CC)[C@@H](C)CC)[C@@H](C)CC (Octanoyl-GIIKKIIKKIIKKI-NH2)
Staphylococcus aureus [1]
  MIC: 4 µM (≈ 7.05 µg/mL)
[13]
  Activity: Toxic
Cell membrane
  Activity: Active
Escherichia coli
  MIC: 4 µM (≈ 7.05 µg/mL)
Pseudomonas aeruginosa [3]
  MIC: 16 µM (≈ 28.2 µg/mL)
Staphylococcus aureus [4]
  MIC: 4 µM (≈ 7.05 µg/mL)
Pseudomonas aeruginosa [5]
  Minimum biofilm inhibitory concentration: 16 µM

## H-GIIKKIIKKIIKKI-NH2
Pseudomonas aeruginosa [14]
  Activity: 46%
Staphylococcus aureus [1]
  MIC: 4 µM
Cell membrane
  Activity: Active
Pseudomonas aeruginosa [15]
  Activity: 45%
Escherichia coli
  MIC: 8 µM
Pseudomonas aeruginosa [3]
  MIC: 16 µM
Staphylococcus aureus [4]
  MIC: 16 µM
Pseudomonas aeruginosa [16]
  Activity: 59%
Pseudomonas aeruginosa [5]
  Minimum biofilm inhibitory concentration: 16 µM

## CC[C@H](C)[C@H](NC(=O)CN)C(=O)N[C@H](C(=O)N[C@@H](CCCCN)C(=O)N[C@@H](CCCCN)C(=O)N[C@H](C(=O)N[C@H](C(=O)N[C@@H](CCCCN)C(=O)N[C@@H](CCCCN)C(=O)N[C@H](C(=O)N[C@H](C(=O)N[C@@H](CCCCN)C(=O)N[C@@H](CCCCN)C(=O)N[C@H](C(=O)N[C@@H](CO[C@@H]1O[C@H](CO)[C@H](O)[C@H](O)[C@H]1O)C(N)=O)[C@@H](C)CC)[C@@H](C)CC)[C@@H](C)CC)[C@@H](C)CC)[C@@H](C)CC)[C@@H](C)CC (H-GIIKKIIKKIIKKIS(βGal)-NH2)
[8]
  Kd: 21.1 µM
Staphylococcus aureus [1]
  MIC: 16 µM (≈ 30.2 µg/mL)
Cell membrane
  Activity: Active
Pseudomonas aeruginosa [2]
  Activity: 62%
Escherichia coli
  MIC: 32 µM (≈ 60.3 µg/mL)
Pseudomonas aeruginosa [3]
  MIC: 16 µM (≈ 30.2 µg/mL)
Pseudomonas aeruginosa [17]
  MIC: 32 µM (≈ 60.3 µg/mL)
Staphylococcus aureus [4]
  MIC: 32 µM (≈ 60.3 µg/mL)
[11]
  deltaH: -23.9 kcal/mol
Pseudomonas aeruginosa [5]
  Minimum biofilm inhibitory concentration: 16 µM
Pseudomonas aeruginosa [6]
  Activity: Active
[12]
  deltaS: -246 J/mol/K

## CCCCCCCC(=O)NCC(=O)N[C@H](C(=O)N[C@H](C(=O)N[C@@H](CCCCN)C(=O)N[C@@H](CCCCN)C(=O)N[C@H](C(=O)N[C@H](C(=O)N[C@@H](CCCCN)C(=O)N[C@@H](CCCCN)C(=O)N[C@H](C(=O)N[C@@H](CO[C@@H]1O[C@H](CO)[C@H](O)[C@H](O)[C@H]1O)C(N)=O)[C@@H](C)CC)[C@@H](C)CC)[C@@H](C)CC)[C@@H](C)CC)[C@@H](C)CC (Octanoyl-GIIKKIIKKIS(βGal)-NH2)
[8]
  Kd: 28 µM
Staphylococcus aureus [1]
  MIC: 4 µM (≈ 6.11 µg/mL)
Cell membrane
  Activity: Active
Escherichia coli
  MIC: 12 µM (≈ 18.3 µg/mL)
Pseudomonas aeruginosa [3]
  MIC: 16 µM (≈ 24.4 µg/mL)
Staphylococcus aureus [4]
  MIC: 4 µM (≈ 6.11 µg/mL)
[11]
  deltaH: -6.53 kcal/mol
Pseudomonas aeruginosa [5]
  Minimum biofilm inhibitory concentration: 16 µM
[12]
  deltaS: -4.53 J/mol/K

## Ac-GIIKKIIKKIIKKI-NH2
Staphylococcus aureus [1]
  MIC: 4 µM
Cell membrane
  Activity: Active
Escherichia coli
  MIC: 12 µM
Pseudomonas aeruginosa [3]
  MIC: 32 µM
Staphylococcus aureus [4]
  MIC: 12 µM
Pseudomonas aeruginosa [5]
  Minimum biofilm inhibitory concentration: 16 µM

## CCCCCCCCCCCC(=O)NCC(=O)N[C@H](C(=O)N[C@H](C(=O)N[C@@H](CCCCN)C(=O)N[C@@H](CCCCN)C(=O)N[C@H](C(=O)N[C@H](C(=O)N[C@@H](CCCCN)C(=O)N[C@@H](CCCCN)C(=O)N[C@H](C(=O)N[C@H](C(=O)N[C@@H](CCCCN)C(=O)N[C@@H](CCCCN)C(=O)N[C@H](C(N)=O)[C@@H](C)CC)[C@@H](C)CC)[C@@H](C)CC)[C@@H](C)CC)[C@@H](C)CC)[C@@H](C)CC)[C@@H](C)CC (Lauroyl-GIIKKIIKKIIKKI-NH2)
Staphylococcus aureus [1]
  MIC: 4 µM (≈ 7.27 µg/mL)
Cell membrane
  Activity: Active
Escherichia coli
  MIC: 12 µM (≈ 21.8 µg/mL)
Pseudomonas aeruginosa [3]
  MIC: 16 µM (≈ 29.1 µg/mL)
Staphylococcus aureus [4]
  MIC: 12 µM (≈ 21.8 µg/mL)
Pseudomonas aeruginosa [5]
  Minimum biofilm inhibitory concentration: 16 µM
